Biological target: MT1-MMP (Homo sapiens, UniProt P50281)
Assay: FRET triple-helical peptide
Assay type: biochemical

IC50: 19 ± 3 nM
Compound: CNC(=O)[C@@H](NC(=O)[C@H](CC(C)C)[C@H](O)C(=O)NO)C(C)(C)C [marimastat]

Source: PMC6536371 (Chemical biology & drug design, 2018)
